Patent EP3666770A1, “NOVEL HETEROCYCLIC COMPOUNDS AS CDK8/19 INHIBITORS” (Joint Stock Company "Biocad", priority 2017, dated 2019)
Like-named read-outs stand apart in the source and are kept apart here.

Columns and labels:
Caco-2 cell monolayer = assay: Permeability through Caco-2 cell monolayer; type: in vitro ADME; conditions: efflux = Papp B-A / Papp A-B
Outline: (§1)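 Caco-2 monolayers grown for 21 days (Lucifer Yellow integrity check) received 10 µM compound apically at pH 6.5 (A→B) or basolaterally at pH 7.4 with 1% BSA on the basolateral side (B→A). After 2 h at 37 °C, both chambers were quantified by HPLC. Efflux ratio = Papp B→A / Papp A→B.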

[1] = Permeability through Caco-2 cell monolayer; type: in vitro ADME; conditions: human, Caco-2; for Papp A→B at 2 h, 10 µM: A->B transfer, pH 6.5 -> pH 7.4, 2 hours at 37 °C; for efflux ratio at 2 h, 10 µM: efflux = Papp B-A / Papp A-B
Outline: as §1

[2] = Chemical stability in human blood plasma; type: in vitro ADME; conditions: pooled human blood plasma; 10 µM; 4 hours at 37°C; substance amount in % after thermostatting
Outline: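 Pooled plasma from ten healthy human donors; compound diluted from 10 mM DMSO stock to 10 µm final and incubated 4 h at 37°C. After acetonitrile protein precipitation, HPLC peak areas before and after incubation were compared; value is % compound remaining.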

MV4-11 = assay: Cell-based antiproliferative test (AlamarBlue), MV4-11; conditions: 120 h incubation, average values of several tests, read-out: MV-4-11 IC50, mkM
[3] = Chemical stability in simulated gastric fluid (SGF); type: physicochemical; conditions: SGF without enzymes, pH=1,4; 10 µm; 2 hours at 37°C; substance amount in % after thermostatting
Outline: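 Compounds at […] (diluted from DMSO stock) were incubated for 2 h at 37 °C in enzyme-free simulated gastric fluid, pH=1,4. HPLC peak areas before and after incubation gave the % of compound remaining.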

[4] = General cytotoxicity test on HepG2 cells; type: cell-based; conditions: human, HepG2 cells; 72 h incubation; 200 to 0.78 µM; average values of several tests; read-out: Hep-G2 CC50, mkM
Protocol: Cell viability was assessed using the above method. Table 6. […] The results are presented as average values of activity obtained in several tests.

[5] = Enzyme stability in human liver S9 fractions; type: in vitro ADME; conditions: 0,5 mg/mL pooled human liver S9 fractions, 10 µM compound, 37°C, pH=7,4; for microsomal CLint at 10 µM: pH 7.4
Protocol: Measuring of candidates' enzyme stability enabled estimation of the stability of the present compounds towards the action of enzymes in human liver S9 fractions.
Enzyme degradation rate was measured by incubating the reaction mixture in a dry block thermostat at 37°C, said reaction mixture comprising 0,5 mg/mL of pooled human liver S9 fractions (XenoTech, USA, cat#H0610), 10 µM compound, 2 mM β-nicotinamide adenine dinucleotide (Carbosynth, UK, cat#NN10871) and 4 mM magnesium chloride in 0,1 M sodium-phosphate buffer, pH=7,4. The reaction was quenched with acetonitrile (100 µL of acetonitrile / 100 µL of the reaction mixture). After quenching, the samples were centrifuged at 10000 rpm for 10 minutes. Supernatant fluid was tested by chromatographic technique using Agilent1200 (Agilent, USA). Chromatographic analysis was performed in a gradient elution regime with a flow rate of 1 mL/min. A graph of the logarithm of substance's peak area as a function of time was made.

KG-1 = assay: Cell-based antiproliferative test (AlamarBlue), KG-1; conditions: 120 h incubation, average values of several tests, read-out: KG-1 IC50, mkM
[6] = Enzyme stability in human liver microsomes; type: in vitro ADME; conditions: pH 7.4; 0,5 mg/mL pooled human liver microsomes; 10 µM compound; 37°C; pH=7,4
Outline: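 Pooled human liver microsomes (0,5 mg/mL) incubated at 37 °C with 10 µM compound, 2 mM β-NAD and 4 mM MgCl2 in 0,1 M sodium phosphate, pH 7,4. Samples quenched with acetonitrile and analysed by HPLC. Elimination rate constant taken from the slope of log peak area versus time, giving t1/2 and CLint.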

HL-60 = assay: Cell-based antiproliferative test (AlamarBlue), HL-60; conditions: Homo sapiens, HL-60, 120 h, 120 h incubation; average values of several tests; read-out: HL-60 IC50, mkM
Protocol: Antiproliferative activity of CDK8 inhibitors according to the present invention was measured in a cell-based test on continuous cell cultures MV4-11 (biphenotypic myelomonocytic leukemia, ATCC® CRL-9591™), KG-1 (acute myeloid leukemia, ATCC® CCL-246™), HL-60 (acute promyelocytic leukemia, ATCC® CCL-240™) using a vital stain AlamarBlue (ThermoFisher, #DAL1100). The cells were grown in RPMI-1640 (PanEco, #C330p) medium with addition of 10% FBS (Gibco, #16140-071); washed and resuspended in culture medium with 10% FBS (Gibco, #16140-071) in 96-well culture plates (Corning, #3599) with ≈ 10 ×10^3 cells in […] of medium per well. The compounds in question were dissolved in DMSO and diluted with a medium with 10% FBS (Gibco, #16140-071) to a final concentration ranging form 0 to 100 µM. […] of diluted compounds were then added to each well (final DMSO concentration was less than 1%) and incubated under 5% CO2 atmosphere at 37°C for 120 h. After incubating, 15 µL of AlamarBlue (ThermoFisher, #DAL1100) reagent was added per well, contents of plates were mixed in an orbital shaker (Biosan, Latvia) and further incubated for 3-5 h at 37°C under 5% CO2 atmosphere. Number of living cells was estimated using a microplate spectrophotometer (Tecan Infinite M200Pro, Switzerland) measuring fluorescent signal at the excitation wavelength (λEx) of 540 nm and emission wavelength (λEm) of 590 nm.
IC50 was calculated using Magellan 7.2 software (Tecan, Switzerland) approximating experimental points by four-parameter logistic model with the optimization by Levenberg-Marquardt (table 7, table 7).

SMILES | efflux (Caco-2 cell monolayer) | Papp A→B at 2 h, 10 µM [1] [×10⁻⁶ cm/s] | Stability in blood plasma, % [2] [%] | IC50 (MV4-11; Homo sapiens, MV4-11, 120 h) [nM] | Stability in SGF, % [3] [%] | CC50 at 72 h [4] [nM] | efflux ratio at 2 h, 10 µM [1] | microsomal CLint at 10 µM [5] [µL/min/mg] | IC50 (KG-1; Homo sapiens, KG-1) [nM] | Stability in S9, Clint [5] [µL/min/mg] | IC50 (MV4-11) [nM] | IC50 (KG-1) [nM] | microsomal CLint at 10 µM [6] [µL/min/mg] | IC50 (HL-60) [nM]
COc1cc(-c2cnc3[nH]cc(C(=O)c4ccccn4)c3c2)ccc1N(C)C [CDK8-4-21, (5-(4-(Dimethylamino)-3-methoxyphenyl)-1H-pyrrolo[2,3-b]pyridin-3-yl)(pyridin-2-yl)methanone] | 0.09 | 106 | 100 | 740 | 100 | 4700 |  |  |  |  |  |  |  | 
COCCN(C)C(=O)c1cnc2cncc(-c3ccc(-c4cnn(C)c4)cc3)c2c1 [CDK8-3-25, N-(2-Methoxyethyl)-N-methyl-5-(4-(1-methyl-1H-pyrazol-4-yl)phenyl)-1,7-naphthyridine-3-carboxamide] |  | 29.3 |  | 134 |  | > 100000 | 0.6 | 3.3 |  |  |  |  |  | 
CO[C@@H]1CCN(C(=O)c2cnc3cncc(-c4ccc(-c5cnn(C)c5)cc4)c3c2)C1 [CDK8-3-19, (R)-(3-Methoxypyrrolidin-1-yl)(5-(4-(1-methyl-1H-pyrazol-4-yl)phenyl)-1,7-naphthyridin-3-yl)methanone] |  |  |  | 912 |  | > 100000 |  | 2.9 |  |  |  |  |  | 
CCN(CC)C(=O)c1cnc2cncc(-c3ccc(-c4cnn(C)c4)cc3)c2c1 [CDK8-3-23, N,N-Diethyl-5-(4-(1-methyl-1H-pyrazol-4-yl)phenyl)-1,7-naphthyridine-3-carboxamide] |  |  |  | 413 |  | > 100000 |  | 9.2 |  |  |  |  |  | 
COCCN(C)C(=O)c1cnc2c(N)ncc(-c3ccc(-c4cnn(C)c4)cc3)c2c1 [CDK8-3-32] |  | 24.9 | 100 | 10 |  | 20700 | 0.7 | 3.8 | < 10 |  |  |  |  | 
CO[C@@H]1CCCN(C(=O)c2cnc3cncc(-c4ccc(-c5cnn(C)c5)cc4)c3c2)C1 [CDK8-3-21, (R)-(3-Methoxypiperidin-1-yl)(5-(4-(1-methyl-1H-pyrazol-4-yl)phenyl)-1,7-naphthyridin-3-yl)methanone] |  |  |  | 764 |  | > 100000 |  | 12.9 |  |  |  |  |  | 
Cn1cc(-c2ccc(-c3cncc4ncc(C(=O)NCC5CC5)cc34)cc2)cn1 [CDK8-3-39] |  |  |  |  |  |  |  |  |  | 10.3 | 55 | 5 |  | 
Cn1cc(-c2ccc(-c3cnc(N)c4ncc(C(=O)NCC5CC5)cc34)cc2)cn1 [CDK8-3-40, 8-Amino-N-(cyclopropylmethyl)-5-(4-(1-methyl-1H-pyrazol-4-yl)phenyl)-1,7-naphthyridine-3-carboxamide] |  |  |  | 9 |  | 200000 |  | 2.95 |  |  |  |  |  | 
Cn1cc(-c2ccc(-c3cnc(N)c4ncc(C(=O)N5CCOCC5)cc34)cc2)cn1 [CDK8-3-27, (8-Amino-5-(4-(1-methyl-1H-pyrazol-4-yl)phenyl)-1,7-naphthyridin-3-yl) (morpholino)methanone] |  | 22.6 | 94.2 | 66 |  | 19400 | 0.9 | 1.55 |  |  |  |  |  | 
Cn1cc(-c2ccc(-c3cnc(N)c4ncc(C(=O)NCCO)cc34)cc2)cn1 [CDK8-3-42, 8-Amino-N-(2-hydroxyethyl)-5-(4-(1-methyl-1H-pyrazol-4-yl)phenyl)-1,7-naphthyridine-3-carboxamide] |  | 11.8 | 100 | 28 |  | 15900 | 1.6 | 0.5 | 9 |  |  |  |  | 
COc1ccc(-c2cnc3[nH]cc(C(=O)c4cccnc4)c3c2)c(C#N)c1 [CDK8-4-28, 5-Methoxy-2-(3-nicotinoyl-1H-pyrrolo[2,3-b]pyridin-5-yl) benzonitrile] | 0.03 | 68.9 | 100 | > 1000 | 100 | > 200000 |  |  |  |  |  |  | 6.8 | 
COCCNC(=O)c1cnc2c(N)ncc(-c3ccc(-c4cnn(C)c4)cc3)c2c1 [CDK8-3-24, 8-Amino-N-(2-methoxyethyl)-5-(4-(1-methyl-1H-pyrazol-4-yl)phenyl)-1,7-naphthyridine-3-carboxamide] |  | 17 | 89.7 | 99 |  | > 200000 | 1.1 | 4.6 |  |  |  |  |  | 
CN(C)C(=O)c1cnc2cncc(-c3ccc(-c4cnn(C)c4)cc3)c2c1 [CDK8-3-22, N,N-Methyl-5-(4-(1-methyl-1H-pyrazol-4-yl)phenyl)-1,7-naphthyridine-3-carboxamide] |  |  |  | 432 |  | > 100000 |  | 3 |  |  |  |  |  | 
Cn1cc(-c2ccc(-c3cncc4ncc(C(=O)N5CCC5)cc34)cc2)cn1 [CDK8-3-14, Azetidin-1-yl-(5-(4-(1-methyl-1H-pyrazol-4-yl)phenyl)-1,7-naphthyridin-3-yl) methanone] |  | 39.8 | 100 | 200 | 100 | > 100000 | 1.35 |  | 50 |  |  |  | 13.6 | 69800
Cn1cc(-c2ccc(-c3cnc(N)c4ncc(C(=O)N5CCC5)cc34)cc2)cn1 [CDK8-3-26, (8-Amino-5-(4-(1-methyl-1H-pyrazol-4-yl)phenyl)-1,7-naphthyridin-3-yl) (azetidin-1-yl)methanone] |  | 53.7 | 95.8 | 11 |  | 4900 | 0.3 | 3.25 | 3 |  |  |  |  | 
